Source: patent US20240174692A1, “PYRIMIDINE AROMATIC RING COMPOUNDS” (Medshine Discovery Inc., priority 2021, published 2024)
pIC50: −log10 of the molar value. Structures can show the parent of a compound that is named as a salt. Each block holds one molecule with its values, some of them ahead of it.

Assays:
[1] = target: KRAS^G12D binding to c-Raf (Homo sapiens (Human), UniProt P01116, G12D); experiment: SOS1-mediated binding of KRAS^G12D to effector protein c-Raf (TR-FRET); format: biochemical
KRAS^G12D binding to c-Raf, sequence (P01116-2 other isoform, or with tags, fused parts or gaps G12D): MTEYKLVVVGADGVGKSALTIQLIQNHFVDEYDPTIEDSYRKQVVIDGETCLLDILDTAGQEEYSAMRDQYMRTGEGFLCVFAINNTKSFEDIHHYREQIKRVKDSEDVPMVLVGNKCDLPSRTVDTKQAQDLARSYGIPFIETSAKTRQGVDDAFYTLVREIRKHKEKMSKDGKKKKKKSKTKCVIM

[2] = test system: p-ERK in GP2D cells; experiment: Assay of p-ERK inhibition in GP2D cells (HTRF); format: cell-based; conditions: Homo sapiens, 1 hour incubation
Description: 2. Assay Process • 1) GP2D cells were inoculated in a transparent 96-well cell culture plate, and each well contained 80 μL of cell suspension and 8000 cells. The cell plate was inoculated in a carbon dioxide incubator at 37° C. overnight; • 2) 2 μL of the compound was weighed and added to 78 μL of the cell medium. After the mixture was mixed thoroughly, 20 μL of the solution of compound was weighed and added to the corresponding well of the cell plate. The cell plate was placed back to the carbon dioxide incubator and incubated for another 1 hour; • 3) After completion of the incubation, the cell supernatant was discarded. 50 μL of 1× cell lysate was added to each well. The mixture was incubated with shaking at room temperature for 30 minutes; • 4) Phospho-ERK1/2 Eu Cryptate antibody and Phospho-ERK1/2 d2 antibody were diluted 20-fold with detection buffer; • 5) 16 μL of cell lysate supernatant was weighed and added into each well of a new 384 white microwell plate, and then 2 μL of the diluted solution of Phospho-ERK1/2 Eu Cryptate antibody and 2 μL of the diluted solution of Phospho-ERK1/2 d2 antibody dilution were added. The mixture was incubated at room temperature for at least 4 hours; • 6) After completion of the incubation, HTRF was read with multi-label analyzer: excitation: 320 nm, emission: 615 nm, 665 nm; • 7). IC50 of the compounds to be assayed was calculated.

[3] = test system: p-ERK in AGS cells; experiment: Assay of p-ERK inhibition in AGS cells (HTRF); format: cell-based; conditions: Homo sapiens, 3 hours incubation
Description: 1) AGS cells were inoculated in a transparent 96-well cell culture plate, and each well contained 80 μL of cell suspension and 10000 cells. The cell plate was inoculated in a carbon dioxide incubator at 37° C. overnight; • 2) After completion of the incubation, the cell supernatant was discarded. 80 μL of medium containing 0.02% serum was added to each well. The cell plate was incubated in a carbon dioxide incubator at 37° C. overnight; • 3) 2 μL of the compound was weighed and added to 78 μL of the cell medium. After the mixture was mixed thoroughly, 20 μL of the solution of compound was weighed and added to the corresponding well of the cell plate. The cell plate was placed back to the carbon dioxide incubator and incubated for another 3 hours; • 4) After completion of the incubation, the cell supernatant was discarded. 50 μL of 1× cell lysate was added to each well. The mixture was incubated with shaking at room temperature for 30 minutes; • 5) Phospho-ERK1/2 Eu Cryptate antibody and Phospho-ERK1/2 d2 antibody were diluted 20-fold with detection buffer; • 6) 16 μL of cell lysate supernatant was weighed and added into each well of a new 384 white microwell plate, and then 2 μL of the diluted solution of Phospho-ERK1/2 Eu Cryptate antibody and 2 μL of the diluted solution of Phospho-ERK1/2 d2 antibody dilution were added. The mixture was incubated at room temperature for at least 4 hours; • 7) After completion of the incubation, HTRF was read with multi-label analyzer: excitation: 320 nm, emission: 615 nm, 665 nm; • 8). IC50 of the compounds to be assayed was calculated.

[4] = target: KRAS^G12D (Homo sapiens (Human), UniProt P01116, G12D); experiment: Assay of the activity of inhibiting KRAS^G12D (TR-FRET, SOS/GTP nucleotide exchange); format: biochemical
KRAS^G12D, sequence (P01116-2 other isoform, or with tags, fused parts or gaps G12D): as above

[5] = Pharmacokinetic evaluation of compounds in mice; format: in vivo, CD-1 mice; conditions: CD-1 male mice
Description: Purpose of assay: To assay the pharmacokinetic data of the compounds in CD-1 mice in vivo.
(§1) Compounds were mixed with vehicle 5% DMSO/95% (10% HP-β-CD aqueous solution), and the mixture was vortexed and sonicated to give 0.2 mg/mL-0.3 mg/mL clear solutions. CD-1 male mice aged 7 to 10 weeks were selected, and the candidate compound solution was administered intravenously. Whole blood was collected for a certain period of time to prepare the plasma. The drug concentration was analyzed by LC-MS/MS method and pharmacokinetic parameters were calculated by Phoenix WinNonlin software (Pharsight, USA).
as §1, with “in water),” for “aqueous solution),”, “1.6 mg/mL to 4.0” for “0.2 mg/mL-0.3”, “orally administered.” for “administered intravenously.”, “prepare” for “prepare the”, “method,” for “method”

[6] = test system: KRAS G12D mutated GP2D cells; experiment: Assay of inhibition of GP2D cell proliferation (CellTiter-Glo 3D); format: cell-based; conditions: Homo sapiens, 120 h, 5 days
Description: The aim of this assay was to verify the inhibitory effect of the compounds of the present disclosure on the proliferation of KRAS G12D mutated GP2D human […] cancer cells.
Cell line GP2D, DMEM medium, and penicillin/streptomycin antibiotics were purchased from Wisent; fetal bovine serum was purchased from Biosera; and CellTiter-Glo® 3D Cell Viability Assay (3D cell viability chemiluminescence assay reagent) reagent was purchased from Promega.
GP2D cells were seeded in a 96-well U-bottom cell culture plate. Each well contained 80 μL of cell suspension containing 2000 GP2D cells. The cell plate was incubated overnight in a CO2 incubator. The compound to be assayed was serially diluted 5-fold with a pipette to the 8th concentration, i.e. diluted from 200 μM to 2.56 nM, to set up a double replicate well assay. 78 μL of medium was added to the middle plate, and then 2 μL per well of the gradient dilution compound was transferred to the middle plate according to the corresponding position. The mixture was mixed well and 20 μL per well was transferred to the cell plate. The concentration of compound transferred to the cell plate ranged from 1 μM to 0.0128 nM. The cell plate was incubated in a CO2 incubator for 5 days. At the end of the incubation of the plate with compounds added, 100 μL of cell viability chemiluminescence detection reagent per well was added to the plate and the plate was incubated at room temperature for 10 minutes to stabilize the luminescence signal. Reading was performed using a multi-label analyzer.
The raw data were converted into an inhibition rate by using an equation (Sample−Min)/(Max−Min)*100%. IC50 value can be obtained by curve fitting with four parameters (“log(inhibitor) vs. response—Variable slope” model in GraphPad Prism).

[7] = test system: plasma protein; experiment: Plasma protein binding (PPB), equilibrium dialysis, D plasma; format: in vitro ADME, dog; conditions: 2 μM, 4 hr dialysis
Description: (§2) Assay procedure: 995 μL of blank plasma of various genera were weighed, and 5 μL of assay compound working solution (400 μM) or warfarin working solution (400 μM) was added so that the final concentrations of the assay compound and warfarin in plasma sample were each 2 μM. The samples were mixed thoroughly. The final concentration of DMSO (the organic phase) was 0.5%. 50 μL of the plasma samples of the assay compound and warfarin were pipetted to a sample receiving plate (in triplicate), and the corresponding volume of corresponding blank plasma or buffer was added immediately, so that the final volume in each sample well was 100 μL, wherein the volume ratio of plasma:dialysis buffer was 1:1. 500 μL of stop solution was then added to these samples. These samples were used as T0 samples for determination of recovery and stability. […] All samples were subjected to protein precipitation, and then analyzed by LC/MS/MS. Bound rate and recovery rate of protein were calculated using the following formulae: % Unbound=100*F/T % Bound=100−% Unbound, % Recovery=100*(F+T)/T0 (wherein F is the peak area ratio of the compound in the dialysate after 4 h of dialysis; T is the peak area ratio of the compound in the plasma after 4 h of dialysis; T0 is the peak area ratio of the compound in the plasma sample at time zero).

[8] = test system: plasma protein; experiment: Plasma protein binding (PPB), equilibrium dialysis, M plasma; format: in vitro ADME, mouse; conditions: 2 μM, 4 hr dialysis
Description: as §2

[9] = test system: plasma protein; experiment: Plasma protein binding (PPB), equilibrium dialysis, R plasma; format: in vitro ADME, rat; conditions: 2 μM, 4 hr dialysis
Description: as §2

[10] = test system: plasma protein; experiment: Plasma protein binding (PPB), equilibrium dialysis, H plasma; format: in vitro ADME, human; conditions: 2 μM, 4 hr dialysis
Description: as §2

[11] = test system: plasma protein; experiment: Plasma protein binding (PPB), equilibrium dialysis, C plasma; format: in vitro ADME, monkey; conditions: 2 μM, 4 hr dialysis
Description: as §2

SMILES: C#Cc1c(F)ccc2cc(N)cc(-c3c(Cl)cc4c(N5CC6CCC(C5)N6)nc(OC[C@@]56CCCN5C[C@H](F)C6)nc4c3F)c12 (single isomer, unassigned) [Compound 016B]
pIC50 [1]: 8.21 | pIC50 [2]: 9.17

SMILES: Oc1cc(-c2ccc3c(N4CC5CCC(C4)N5)nc(OC[C@@]45CCCN4C[C@H](F)C5)nc3c2F)c2ccccc2c1 [Compound 005 hydrochloride]
pIC50 [3]: 6.83 | pIC50 [4]: 10.00

pIC50 [4]: 8.89
SMILES: Oc1cc(-c2c(F)cc3c(N4CC5CCC(C4)N5)nc(OC[C@@]45CCCN4C[C@H](F)C5)nc3c2Cl)c2ccccc2c1 [Compound 008 hydrochloride]

SMILES: C#Cc1c(F)ccc2cc(O)cc(-c3ccc4c(N5CC6CCC(C5)N6)nc(OC[C@@]56CCCN5C[C@H](F)C6)nc4c3F)c12 [Compound 010 hydrochloride]
AUCu ([5]; PO, 5.54 mg/kg, AUCu = AUC0-inf *Unbound PPB (Mouse)): 0.0025 µM·h | AUC(0-inf) ([5]; mouse, plasma, PO, 5.54 mg/kg): 0.125 µM·h | Cmax ([5]; mouse, plasma, PO, 5.54 mg/kg): 54 nM | bioavailability ([5]; mouse, plasma, PO, 5.54 mg/kg): 5.1% | half-life ([5]; mouse, plasma, PO, 5.54 mg/kg): 1.6 h | pIC50 [6]: 8.44 | pIC50 [2]: 10.26

SMILES: Cc1cc(N)c(F)c(-c2c(Cl)cc3c(N4CC5CCC(C4)N5)nc(OC[C@@]45CCCN4C[C@H](F)C5)nc3c2F)c1C(F)(F)F [Compound 022 formate]
pIC50 [2]: 7.94

SMILES: Oc1cc(-c2c(Cl)cc3c(N4CC5CCC(C4)N5)nc(OC[C@@]45CCCN4C[C@H](F)C5)nc3c2F)c2ccccc2c1 [Compound 001 formate]
pIC50 [3]: 6.53 | pIC50 [4]: 8.04

SMILES: Nc1nc2c(-c3c(Cl)cc4c(N5CC6CCC(C5)N6)nc(OC[C@@]56CCCN5C[C@H](F)C6)nc4c3F)ccc(F)c2s1 [Compound 004]
pIC50 [3]: 7.50 | pIC50 [4]: 9.30

SMILES: C#Cc1c(F)ccc2cc(O)cc(-c3ccc4c(N5CC6CCC(C5)N6)nc(OC[C@@]56CCCN5C[C@H](F)C6)nc4c3F)c12 [Compound 010]
Unbound PPB D [7]: 2.2% | AUC(0-inf) ([5]; mouse, plasma, IV, 1.03 mg/kg): 0.457 µM·h | C0 ([5]; mouse, plasma, IV, 1.03 mg/kg): 712 nM | Vd ([5]; mouse, plasma, IV, 1.03 mg/kg): 25 L/kg | clearance ([5]; mouse, plasma, IV, 1.03 mg/kg): 61.4 mL/min/kg | half-life ([5]; mouse, plasma, IV, 1.03 mg/kg): 8.1 h | Unbound PPB M [8]: 2.0% | Unbound PPB R [9]: 1.3% | Unbound PPB H [10]: 2.9% | Unbound PPB C [11]: 1.9%

SMILES: Oc1cc(-c2ccc3c(N4CC5CCC(C4)N5)nc(OC[C@@]45CCCN4C[C@H](F)C5)nc3c2F)c2c(F)c(F)ccc2c1 [Compound 011 hydrochloride]
pIC50 [6]: 8.21 | pIC50 [2]: 10.80

pIC50 [4]: 9.40
SMILES: Nc1nc2c(-c3c(F)cc4c(N5CC6CCC(C5)N6)nc(OC[C@@]56CCCN5C[C@H](F)C6)nc4c3Cl)ccc(F)c2s1 [Compound 007 hydrochloride]

SMILES: Cc1cc(N)nc(-c2ccc3c(N4CC5CCC(C4)N5)nc(OC[C@@]45CCCN4C[C@H](F)C5)nc3c2F)c1C(F)(F)F [Compound 019 hydrochloride]
pIC50 [2]: 7.67

SMILES: N#Cc1c(N)sc2c(F)ccc(-c3c(Cl)cc4c(N5CC6CCC(C5)N6)nc(OC[C@@]56CCCN5C[C@H](F)C6)nc4c3F)c12 [Compound 012 formate]
pIC50 [6]: 9.03 | pIC50 [2]: 9.15

SMILES: Nc1cc(-c2ccc3c(N4CC5CCC(C4)N5)nc(OC[C@@]45CCCN4C[C@H](F)C5)nc3c2F)c2c(F)c(F)ccc2c1 [Compound 013 hydrochloride]
pIC50 [2]: 9.06

SMILES: Nc1nc2c(-c3c(F)cc4c(N5CC6CCC(C5)N6)nc(OC[C@@]56CCCN5C[C@H](F)C6)nc4c3F)ccc(F)c2s1 [Compound 020 formate]
pIC50 [4]: 8.18

SMILES: Cc1cc(N)nc(-c2c(Cl)cc3c(N4CC5CCC(C4)N5)nc(OC[C@@]45CCCN4C[C@H](F)C5)nc3c2F)c1C(F)(F)F [Compound 018 trifluoroacetate]
pIC50 [2]: 8.80

SMILES: C#Cc1c(F)ccc2cc(N)cc(-c3c(F)cc4c(N5CC6C=CC(C5)N6)nc(OC[C@@]56CCCN5C[C@H](F)C6)nc4c3F)c12 [Compound 034]
pIC50 [1]: 7.65

SMILES: Oc1cc(-c2c(Cl)cc3c(N4CC5CCC(C4)N5)nc(OC[C@@]45CCCN4C[C@H](F)C5)nc3c2F)c2ccccc2c1 (single isomer, unassigned) [Compound 027 hydrochloride]
pIC50 [4]: 7.41

SMILES: CCc1c(F)ccc2cc(O)cc(-c3ccc4c(N5CC6CCC(C5)N6)nc(OC[C@@]56CCCN5C[C@H](F)C6)nc4c3Cl)c12 [Compound 024 formate]
pIC50 [6]: 7.80 | pIC50 [2]: 8.36

SMILES: CCc1c(F)ccc2cc(O)cc(-c3ccc4c(N5CC6CCC(C5)N6)nc(OC[C@@]56CCCN5C[C@H](F)C6)nc4c3F)c12 [Compound 006 hydrochloride]
pIC50 [3]: 7.17 | pIC50 [6]: 8.69
